Measurements published in patent US9670259B2, “Method of inhibiting angiogenesis using inhibitors of G-protein-coupled receptor kinase interacting protein-1 (GIT1)” (University of Rochester, priority 2013, dated 2017).

Experiments:
Format in all cases: cell-based, human
Dll4 = Dll4 mRNA (qRT-PCR) and protein (western blot) after GIT1 depletion with siRNA in HUVECs; settings: siRNA 48 h, compared to control siRNA
Protocol: (§1) Human umbilical vein endothelial cells (HUVECs) were isolated and grown in Medium 200 with low serum growth supplement (Cascade Biologics, Inc., Portland, Oreg.) as described previously (Carmeliet et al., Nature 436:193 (2005), which is hereby incorporated by reference in its entirety). GIT1 siRNA ([…]) (SEQ ID NO: 21) and control non-silencing siRNA([…]) (SEQ ID NO: 22) were designed and synthesized (Ambion) and Dll4 siRNA was purchased (Santa Cruz). The siRNA were transfected at 100 nM for 48 h as previously described by our laboratory (Yin et al., Mol. Cell Biol., 24:875 (2004), which is hereby incorporated by reference in its entirety). […]
(§2) For immunoblotting, cells were lysed in RIPA buffer (150 mM NaCl, 1% Nonidet P-40, […], 0.1% SDS, 50 mM Tris-HCl, pH 8.0). Protein concentrations in the lysates were determined. […] After incubating with fluorescence-conjugated secondary antibodies, immunoreactive proteins were visualized by an Odyssey infrared imaging system (LI-COR Biotechnology, Nebraska). […]
(§3) Total RNA from retinas and lungs of GIT1 WT and KO mice or HUVECs was obtained using TRIzol reagent (Invitrogen) according to the manufacturer's protocol. […] Target genes mRNA expression and mitochondrial DNA content were determined by qRT-PCR (Applied Biosystems). […]

Hey1 = Hey1 mRNA (qRT-PCR) and protein (western blot) after GIT1 depletion with siRNA in HUVECs; settings: compared to control siRNA
Protocol: as §1, §2, §3

Notch1 = Notch1 expression and cleavage (N1-ICD) after GIT1 depletion with siRNA in HUVECs; settings: siRNA treated
Protocol: Human umbilical vein endothelial cells (HUVECs) were isolated and grown in Medium 200 with low serum growth supplement (Cascade Biologics, Inc., Portland, Oreg.) as described previously (Carmeliet et al., Nature 436:193 (2005), which is hereby incorporated by reference in its entirety). GIT1 siRNA ([…]) (SEQ ID NO: 21) and control non-silencing siRNA([…]) (SEQ ID NO: 22) were designed and synthesized (Ambion) and Dll4 siRNA was purchased (Santa Cruz). The siRNA were transfected at 100 nM for 48 h as previously described by our laboratory (Yin et al., Mol. Cell Biol., 24:875 (2004), which is hereby incorporated by reference in its entirety). HEK293 cells were cultured in Dulbecco's modified Eagle's medium supplemented with 10% fetal bovine serum (FBS), penicillin, and streptomycin at 37° C. in 5% CO2. HEK293T cells were transfected by Lipofectamine/plus (Invitrogen).
For immunoblotting, cells were lysed in RIPA buffer (150 mM NaCl, 1% Nonidet P-40, […], 0.1% SDS, 50 mM Tris-HCl, pH 8.0). Protein concentrations in the lysates were determined. The protein samples were separated by SDS-PAGE, transferred to nitrocellulose membranes, and incubated with appropriate primary antibodies. After incubating with fluorescence-conjugated secondary antibodies, immunoreactive proteins were visualized by an Odyssey infrared imaging system (LI-COR Biotechnology, Nebraska). […]

ERK1/2 = assay: VEGF induced ERK1/2 activation in HUVEC infected with SHD-Flag lentivirus; settings: lentivirus overexpression, VEGF 10 ng/mL
Protocol: (§4) In an effort to identify the potential GIT1 inhibitor peptides, a flag-tagged SHD domain of GIT1 (SHD-Flag) was cloned into a lentivirus vector.
(§5) HUVECs were seeded on 6 well plate at 80% confluence. The next day, cells were infected with control and SHD-Flag containing Lentivirus with Polybrene. After 1 day, infection media was changed with fresh complete M200 media (containing 5% FBS+1% Penicillin-Streptomycin and 2% LSGS). After 48 hours, cells were serum starved with serum free M200 media for 1 hour and stimulated with VEGF (10 ng/mL) for different time points ranging from 0 to 30 minutes. Next cells were lysed and used for western blot analysis to measure PLCγ and ERK1/2 activation. […] No effect of SHD overexpression on VEGF induced ERK1/2 activation was observed. Flag tagged SHD expression in HUVECs were confirmed by detecting Flag in the lysate

HUVEC = HUVEC tube formation on matrigel after SHD overexpression; settings: HUVECs with VEGF on growth factor reduced matrigel, 16 hours, compared to control
Protocol: In addition to PLCγ signaling, the effect of SHD overexpression on HUVEC tube formation in vitro was also assessed. Endothelial cells reorganize themselves in a 3D matrix like matrigel and form tubes which is an index of in vitro angiogenesis. After 48 hours, cells were cultured at a constant number (10^4 cells/well) with VEGF on growth factor reduced matrigel (30 uL) coated 96 well plate and incubated for 16 hours.

PLCγ = assay: VEGF induced PLCγ activation in HUVEC infected with SHD-Flag lentivirus; settings: lentivirus overexpression, VEGF 10 ng/mL
Protocol: as §4, §5

GIT1 siRNA: siRNA AAGCTGCCAAGAAGAAGCTAC (SEQ ID NO: 21), synthesized (Ambion) (listed as DNA, chemistry not given here)
increase of Dll4 mRNA expression (Dll4): 3.2±0.6 fold | increase of Dll4 protein expression (Dll4): 6.3±0.3 fold | increase of Hey1 mRNA expression (Hey1): 5.2±0.57 fold | increase of Hey1 protein expression (Hey1): 3.0±0.3 fold | Notch1 expression (Notch1): no change | enhancement of expression of N1-ICD (Notch1; normalized to total Notch1): 1.7±0.4 fold

B1: SHD-Flag: flag-tagged SHD domain of GIT1 (residues 250-420 of SEQ ID NO: 1) cloned into a lentivirus vector (protein, listed as Homo sapiens)
chain: QMADSLDLSELAKAAKKKLQALSNRLFEELAMDVYDEVDRRENDAVWLATQNHSTLVTERSAVPFLPVNPEYSATRNQGRQKLARFNAREFATLIIDILSEAKRRQQGKSLSSPTDNLELSLRSQSDLDDQHDYDSVASDEDTDQEPLRSTGATRSNRARSMDSSDLSDGA
modifications: Flag tag; lentivirus vector
VEGF induced ERK1/2 activation (ERK1/2): No effect | formation of tube-like structures (HUVEC): inhibited the formation of tube-like structures | VEGF induced PLCγ activation (PLCγ): blocked VEGF induced PLCγ activation
